Reference: ChEMBL document CHEMBL1132510, “[35S]S-[5-(4-benzoylphenyl)pentyl]glutathione: a versatile radioligand targeting GS-X pumps with the ability of photoaffinity labeling” (Bioorg Med Chem Lett, 1999)

Key:
[1] = system: HL-60; assay: Compound was evaluated for the competitive inhibition of the MRP1/GS-X pump mediated transport of LTC4 in the cisplatin-resistant human leukemia HL-60 (HL-60/R-CP) cells; type: functional, cell-based
[2] = system: HL-60; assay: Inhibitory activity against MRP1/GS-X pump mediated transport of delta7-PGA1 methyl ester glutathione conjugate in the cisplatin-resistant human leukemia HL-60 (HL-60/R-CP) cells; type: functional, cell-based

IC50 [1]: 400 nM
IC50 [2]: 520 nM
SMILES: N[C@@H](CCC(=O)N[C@@H](CSCCCCCc1ccc(C(=O)c2ccccc2)cc1)C(=O)NCC(=O)O)C(=O)O
